Test results taken from patent publication US20210315893A1 (Galapagos NV, priority 2017, published 2021).

Columns and labels:
[1] = molecular target: T1, human GPCR sphingosine 1-phosphate receptor 2 (Homo sapiens, UniProt O95136); test: S1PR2 antagonist Ca2+ flux assay; format: cell-based; settings: antagonist mode, CHO-S1PR2 cells, S1P at EC80, Ca2+ fluorescence; read-out: S1P2 EC50 (nM), S1P2 antagonist EC50
T1 construct: host or cells: CHO
Method in brief: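 CHO cells stably expressing human S1PR2, serum-starved 1 h, Fluo8-loaded; compound-evoked Ca2+ fluorescence read 3 min (agonist mode), then after 15 min S1P at EC80 added and read 3 min (antagonist mode). Max/baseline fluorescence ratios normalised to vehicle and S1P EC100 or EC50 controls; EC50 derived.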

[2] = molecular target: T2, human GPCR sphingosine 1-phosphate receptor 1 (Homo sapiens, UniProt P21453); test: S1PR1 selectivity Ca2+ flux assay (antagonist readout); format: cell-based; settings: antagonist readout, CHO cells overexpressing human S1PR1 and Gq, S1P at EC80 (6 nM); read-out: S1P1 EC50 (nM), S1P1 antagonist EC50
T2 construct: host or cells: CHO
Method in brief: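 CHO cells stably overexpressing human S1PR1, starved 1 h in 0.1% FAF BSA medium, then Fluo 8 dye-loaded. Compound added, then after 15 min at 37 °C, S1P-evoked Ca2+ flux recorded. Maximal signal/background ratio normalized to controls as % inhibition; IC50 from four-parameter logistic fit.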

[3] = molecular target: T3, human GPCR sphingosine 1-phosphate receptor 5 (Homo sapiens, UniProt Q9H228); test: S1PR5 selectivity Ca2+ flux assay (antagonist readout); format: cell-based; settings: CHO cells overexpressing human S1PR5 and Gq, agonist at EC80 (20 nM), read-out: S1P5 EC50 (nM), S1P5 antagonist EC50
T3 construct: host or cells: CHO
Method in brief: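 CHO cells stably coexpressing human S1PR5 and Gq were serum-starved, Fluo 8-loaded and preincubated 15 min at 37° C with compound. They were then stimulated at EC80 with an S1PR5-specific agonist, and calcium fluorescence was recorded for 3 min. Peak/baseline ratios were normalized to controls and fitted to a four-parameter IC50 equation.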

S1PR2 = molecular target: T4, S1PR2 (Homo sapiens, UniProt O95136); test: S1PR2 binding assay (competition with radioactively labeled S1P, SpA); settings: membranes from stable cell line over expressing S1PR2, SpA beads; read-out: S1P2 EC50 (nM), S1PR2 binding EC50
T4 construct: expressed in transfected cells
Method in brief: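 Competition with [3H]S1P for membranes from a stable S1PR2-overexpressing cell line, 20 μg/well, captured on PVT-WGA SPA beads, in 20 mM Tris pH 7.5, 10 mM MgCl2, 100 mM NaCl, 0.4% fatty-acid-free BSA, 1 mM Na3VO4. 2 h at room temperature, then centrifugation and scintillation counting.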

HFL-1 cells [4] = test: IL-8 production assay (S1P induced IL-8); format: cell-based; settings: Homo sapiens, HFL1; S1P (1 μM) induced IL-8 in HFL-1 cells, starvation medium without HSA; read-out: IL8 EC50
Method in brief: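 HFL-1 human fetal lung fibroblasts were starved in F12K/1% FBS, then given compound for 1 h (10-point, 1/3 dilution, 30 μM top, 0.3% DMSO final). S1P was added at 1 μM final for 16–24 h at 37 °C, and secreted IL-8 in supernatant quantified by ELISA.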

HFL-1 cells [5] = test: IL8 assay in the presence of Human Serum Albumin; settings: HFL1, read-out: HSA IL8 EC50

T2 sequence (P21453 whole entry): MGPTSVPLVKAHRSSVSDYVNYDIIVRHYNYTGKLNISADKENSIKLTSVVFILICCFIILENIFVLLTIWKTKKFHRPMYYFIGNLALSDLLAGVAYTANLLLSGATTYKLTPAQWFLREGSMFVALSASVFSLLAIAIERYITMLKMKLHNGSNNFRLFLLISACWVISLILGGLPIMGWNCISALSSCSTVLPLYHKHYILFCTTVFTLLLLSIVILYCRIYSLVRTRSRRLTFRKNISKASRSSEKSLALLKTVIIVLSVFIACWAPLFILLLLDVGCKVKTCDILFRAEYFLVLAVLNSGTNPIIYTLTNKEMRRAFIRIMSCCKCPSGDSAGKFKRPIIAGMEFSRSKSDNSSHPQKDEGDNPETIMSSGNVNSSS
T1 sequence (O95136 whole entry): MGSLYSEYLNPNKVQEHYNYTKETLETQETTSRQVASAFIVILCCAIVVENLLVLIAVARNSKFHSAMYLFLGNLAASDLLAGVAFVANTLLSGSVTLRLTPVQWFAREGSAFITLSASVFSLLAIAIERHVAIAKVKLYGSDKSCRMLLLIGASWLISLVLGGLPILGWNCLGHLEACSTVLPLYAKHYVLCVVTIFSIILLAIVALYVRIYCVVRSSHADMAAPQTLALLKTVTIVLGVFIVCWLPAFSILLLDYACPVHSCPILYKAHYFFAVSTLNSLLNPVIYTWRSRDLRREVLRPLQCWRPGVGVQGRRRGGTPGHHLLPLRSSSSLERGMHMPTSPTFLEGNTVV
T4 sequence (O95136 whole entry): as above
T3 sequence (Q9H228 whole entry): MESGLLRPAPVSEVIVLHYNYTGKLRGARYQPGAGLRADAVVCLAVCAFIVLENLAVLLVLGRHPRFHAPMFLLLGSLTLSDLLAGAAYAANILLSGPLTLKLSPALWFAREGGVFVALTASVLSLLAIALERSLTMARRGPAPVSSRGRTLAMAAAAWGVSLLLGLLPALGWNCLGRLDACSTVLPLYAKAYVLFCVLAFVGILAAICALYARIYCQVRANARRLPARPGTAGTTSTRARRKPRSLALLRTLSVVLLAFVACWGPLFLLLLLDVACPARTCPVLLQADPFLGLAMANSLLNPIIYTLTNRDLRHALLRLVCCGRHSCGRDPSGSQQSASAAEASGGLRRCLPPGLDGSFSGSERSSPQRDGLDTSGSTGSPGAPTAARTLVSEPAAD

EC50 [1] [nM]	EC50 [2] [nM]	EC50 [3] [nM]	EC50 (S1PR2) [nM]	EC50 (HFL-1 cells [4]) [nM]	EC50 (HFL-1 cells [5]) [nM]	SMILES
2.23	698	19800	2.58	0.04	1.36	O=C(Cc1nn(Cc2nc3cc(OCC4CC4)c(Br)cc3[nH]2)c2ccccc2c1=O)N1C[C@H](O)[C@@H](O)C1 [Compound 217, 1-[[6-bromo-5-(cyclopropylmethoxy)-1H-benzimidazol-2-yl]methyl]-3-[2-[(3S,4S)-3,4-dihydroxypyrrolidin-1-yl]-2-oxo-ethyl]cinnolin-4-one]
8.29	≥ 19800	19800	136	21.3	808	O=C(Cn1nc(Cn2cc3cc(OCC4CC4)c(Cl)cc3n2)c2ccccc2c1=O)NS(=O)(=O)C1CC1 [Compound 244, 2-[4-[[6-chloro-5-(cyclopropylmethoxy)indazol-2-yl]methyl]-1-oxo-phthalazin-2-yl]-N-cyclopropylsulfonyl-acetamide]
13.2	≥ 19800	19800	191	6.61	18.4	CCOc1cc2[nH]c(Cc3nn(CC(=O)N4CCOCC4)c(=O)c4c3CCCC4)nc2cc1C#N [Compound 167, 6-ethoxy-2-[[3-(2-morpholino-2-oxo-ethyl)-4-oxo-5,6,7,8-tetrahydrophthalazin-1-yl]methyl]-1H-benzimidazole-5-carbonitrile]
57	≥ 19800	19800	392	96.7	822	COc1cc2[nH]c(Cc3nn(CC(=O)O)c(=O)c4c3CCCC4)nc2cc1Cl [Compound 120, 2-[4-[(5-chloro-6-methoxy-1H-benzimidazol-2-yl)methyl]-1-oxo-5,6,7,8-tetrahydrophthalazin-2-yl]acetic acid]
10800	≥ 19800	19800	1510	9950	3320	N#Cc1cc2nn(Cc3nn(CC(=O)NC4CCCC4)c(=O)c4ccccc34)cc2cc1OCC(F)F [Compound 208, 2-[4-[[6-cyano-5-(2,2-difluoroethoxy)indazol-2-yl)methyl]-1-oxo-phthalazin-2-yl]-N-cyclopentyl-acetamide]
9	≥ 19800	19800	400	764	2580	CS(=O)(=O)NC(=O)Cn1nc(Cn2cc3cc(OCC4CC4)c(Cl)cc3n2)c2ccccc2c1=O [Compound 243, 2-[4-[[6-chloro-5-(cyclopropylmethoxy)indazol-2-yl]methyl]-1-oxo-phthalazin-2-yl]-N-methylsulfonyl-acetamide]
4.55	≥ 19800	19800	11.6	0.567	3.17	N#Cc1cc2[nH]c(Cn3nc(CC(=O)N4C[C@H](O)[C@@H](O)C4)c(=O)c4ccccc43)nc2cc1OCC1CC1 [compound 10, 6-(cyclopropyl-methoxy)-2-[[3-[2-[(3S,4S)-3,4-dihydroxy-pyrrolidin-1-yl]-2-oxo-ethyl]-4-oxo-cinnolin-1-yl]methyl]-3H-benzimidazole-5-carbonitrile]
19.2	≥ 19800	19800	65.6	10.4	64	N#Cc1cc2[nH]c(Cc3nn(CC(=O)N4CCC(O)C(F)(F)C4)c(=O)c4ccccc34)nc2cc1OCC(F)F (stereo not drawn) [Compound 212]
37.5	≥ 19800	19800	178	24.3	3460	N#Cc1cc2nn(Cc3nn(CC(=O)O)c(=O)c4ccccc34)cc2cc1OCC1CC1 [Compound 135, 2-[4-[[6-cyano-5-(cyclopropylmethoxy)indazol-2-yl]methyl]-1-oxo-phthalazin-2-yl]acetic acid]
